Laboratory results from ChEMBL document CHEMBL1148045, “Dactyltronic acids from the sponge Dactylospongia elegans” (J Nat Prod, 1994).
≈ marks a conversion by molar mass, not a printed value.

Key:
P388 = test: Cytotoxicity against mouse P388 cells; type: functional, cell-based
A549 = test: Cytotoxicity against human A549 cells; type: functional, cell-based

SMILES: C=C1CCC[C@H]2[C@](C)(CC(=O)C3=C(O)C(OC)OC3=O)[C@@H](C)CC[C@]12C (some centres not stated) [DACTYLTRONIC ACID]
- IC50 (P388): 10 µg/mL (≈ 27.6 µM)
- IC50 (A549): 10 µg/mL (≈ 27.6 µM)
